Measurements taken from ChEMBL document CHEMBL4396963, “An exploration of solvent-front region high affinity moiety leading to novel potent ALK & ROS1 dual inhibitors with mutant-combating effects” (Bioorg Med Chem, 2019).
Active and inactive are the calls of the source. No cut-off for these calls is given here.

What was measured:
[1] = target: Hepatocyte growth factor receptor (Homo sapiens, UniProt P08581); assay: Inhibition of recombinant human N-terminal GST-tagged MET (956 to 1390 residues) cytoplasmic domain expressed in baculovirus expression system using Srctide as substrate incubated for 1 hr by mobility shift assay
[2] = target: ALK tyrosine kinase receptor (Homo sapiens, UniProt Q9UM73, L1196M); assay: Inhibition of recombinant human N-terminal GST-tagged ALK (1058 to 1620 residues) cytoplasmic domain L1196M mutant expressed in baculovirus expression system using srctide as substrate incubated for 1 hr by mobility shift assay
[3] = target: ALK tyrosine kinase receptor (Homo sapiens, UniProt Q9UM73); assay: Inhibition of recombinant human N-terminal GST-tagged ALK (1058 to 1620 residues) cytoplasmic domain expressed in baculovirus expression system using srctide as substrate incubated for 1 hr by mobility shift assay
NCI-H2228 [4] = assay: Antiproliferative activity against human NCI-H2228 cells assessed as reduction in cell viability incubated for 72 hrs by MTT assay; format: functional, cell-based; settings: NCI-H2228, 72 h
KARPAS-299 = assay: Antiproliferative activity against human KARPAS299 cells assessed as reduction in cell viability incubated for 72 hrs by MTT assay; format: functional, cell-based; settings: KARPAS-299, 72 h
HCC78 = assay: Antiproliferative activity against human HCC78 cells assessed as reduction in cell viability incubated for 72 hrs by MTT assay; format: functional, cell-based; settings: HCC78, 72 h
A549 [5] = assay: Antiproliferative activity against human A549 cells harbouring […] mutant assessed as reduction in cell viability incubated for 72 hrs by MTT assay; format: functional, cell-based; settings: A549, 72 h
A549 [6] = assay: Potency index, ratio of IC50 of ceritinib to IC50 of compound for antiproliferative activity against human A549 cells harbouring […] mutant assessed as reduction in cell viability incubated for 72 hrs by MTT assay; format: functional
[7] = target: Proto-oncogene tyrosine-protein kinase ROS (Homo sapiens, UniProt P08922); assay: Inhibition of recombinant human N-terminal GST-tagged ROS (1883 to 2347 residues) cytoplasmic domain expressed in baculovirus expression system using IRS1 as substrate incubated for 1 hr by mobility shift assay
[8] = target: Epidermal growth factor receptor (Homo sapiens, UniProt P00533)
Description: Inhibition of recombinant human N-terminal GST-tagged EGFR (669 to 1210 residues) cytoplasmic domain expressed in baculovirus expression system using Srctide as substrate incubated for 1 hr by mobility shift assay

[9] = target: ALK tyrosine kinase receptor (Homo sapiens, UniProt Q9UM73, G1202R); assay: Inhibition of recombinant human N-terminal GST-tagged ALK (1058 to 1620 residues) cytoplasmic domain G1202R mutant using srctide as substrate incubated for 1 hr by mobility shift assay
NCI-H2228 [10] = assay: Induction of apoptosis in human NCI-H2228 cells assessed as increase in cell membrane damage incubated for 48 hrs by Hoechst 33258 staining based fluorescence microscopy; format: functional
NCI-H2228 [11] = assay: Induction of apoptosis in human NCI-H2228 cells assessed as increase in nuclei damage incubated for 48 hrs by Hoechst 33258 staining based fluorescence microscopy; format: functional, cell-based
NCI-H2228 [12] = assay: Induction of apoptosis in human NCI-H2228 cells assessed as increase in nuclear shrinkage incubated for 48 hrs by AO/EB staining based fluorescence microscopy; format: functional, cell-based
NCI-H2228 [13] = assay: Induction of apoptosis in human NCI-H2228 cells assessed as increase in nuclear fragmentation incubated for 48 hrs by AO/EB staining based fluorescence microscopy; format: functional, cell-based
NCI-H2228 [14] = assay: Induction of apoptosis in human NCI-H2228 cells assessed as increase in nuclear fragmentation at 30 nM incubated for 48 hrs by AO/EB staining based fluorescence microscopy; format: functional, cell-based
NCI-H2228 [15] = assay: Induction of apoptosis in human NCI-H2228 cells assessed as increase in nuclear shrinkage at 30 nM incubated for 48 hrs by AO/EB staining based fluorescence microscopy; format: functional, cell-based
NCI-H2228 [16] = assay: Induction of apoptosis in human NCI-H2228 cells assessed as increase in cell membrane damage at 30 nM incubated for 48 hrs by Hoechst 33258 staining based fluorescence microscopy; format: functional
NCI-H2228 [17] = assay: Induction of apoptosis in human NCI-H2228 cells assessed as increase in nuclei damage at 30 nM incubated for 48 hrs by Hoechst 33258 staining based fluorescence microscopy; format: functional, cell-based
A549 [18] = assay: cells; settings: Homo sapiens, A549, 72 h
HT-29 = assay: cells; settings: Homo sapiens, HT-29, 72 h
Description: Antiproliferative activity against human HT-29 cells assessed as reduction in cell viability incubated for 72 hrs by MTT assay

Epidermal growth factor receptor, sequence (P00533 whole entry, the tested form may be a part): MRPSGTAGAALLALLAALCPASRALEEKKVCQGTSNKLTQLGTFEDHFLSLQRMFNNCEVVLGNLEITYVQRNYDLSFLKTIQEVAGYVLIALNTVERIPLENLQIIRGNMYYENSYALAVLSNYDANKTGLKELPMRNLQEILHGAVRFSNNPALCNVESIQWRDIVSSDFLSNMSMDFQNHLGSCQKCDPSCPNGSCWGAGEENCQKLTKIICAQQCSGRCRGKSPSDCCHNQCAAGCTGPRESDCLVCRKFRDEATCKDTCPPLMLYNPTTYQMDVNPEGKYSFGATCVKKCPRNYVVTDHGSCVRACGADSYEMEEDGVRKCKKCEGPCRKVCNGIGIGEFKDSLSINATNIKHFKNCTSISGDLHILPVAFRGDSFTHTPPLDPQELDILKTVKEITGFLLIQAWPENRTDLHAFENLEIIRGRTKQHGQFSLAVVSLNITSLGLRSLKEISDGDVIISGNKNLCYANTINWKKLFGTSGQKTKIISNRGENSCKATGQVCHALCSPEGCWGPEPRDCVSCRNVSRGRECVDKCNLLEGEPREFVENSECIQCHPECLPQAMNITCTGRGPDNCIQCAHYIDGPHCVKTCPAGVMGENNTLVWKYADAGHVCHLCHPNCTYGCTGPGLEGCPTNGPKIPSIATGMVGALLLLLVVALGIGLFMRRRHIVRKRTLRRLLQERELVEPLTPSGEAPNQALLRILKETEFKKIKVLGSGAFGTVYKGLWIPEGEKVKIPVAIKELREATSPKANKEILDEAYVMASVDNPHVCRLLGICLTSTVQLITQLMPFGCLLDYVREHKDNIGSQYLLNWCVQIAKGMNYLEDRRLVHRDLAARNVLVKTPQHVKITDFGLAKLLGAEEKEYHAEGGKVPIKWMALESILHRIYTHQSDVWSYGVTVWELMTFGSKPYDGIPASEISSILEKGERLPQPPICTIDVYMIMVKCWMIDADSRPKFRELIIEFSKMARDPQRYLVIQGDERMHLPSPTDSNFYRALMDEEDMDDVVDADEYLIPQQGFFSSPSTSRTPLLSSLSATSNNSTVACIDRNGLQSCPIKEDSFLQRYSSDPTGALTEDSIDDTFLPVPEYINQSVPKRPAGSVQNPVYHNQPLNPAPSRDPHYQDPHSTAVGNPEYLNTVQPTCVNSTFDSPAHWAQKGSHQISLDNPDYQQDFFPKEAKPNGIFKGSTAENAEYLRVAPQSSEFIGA
ALK tyrosine kinase receptor (Homo sapiens, UniProt Q9UM73), sequence (Q9UM73 whole entry, the tested form may be a part): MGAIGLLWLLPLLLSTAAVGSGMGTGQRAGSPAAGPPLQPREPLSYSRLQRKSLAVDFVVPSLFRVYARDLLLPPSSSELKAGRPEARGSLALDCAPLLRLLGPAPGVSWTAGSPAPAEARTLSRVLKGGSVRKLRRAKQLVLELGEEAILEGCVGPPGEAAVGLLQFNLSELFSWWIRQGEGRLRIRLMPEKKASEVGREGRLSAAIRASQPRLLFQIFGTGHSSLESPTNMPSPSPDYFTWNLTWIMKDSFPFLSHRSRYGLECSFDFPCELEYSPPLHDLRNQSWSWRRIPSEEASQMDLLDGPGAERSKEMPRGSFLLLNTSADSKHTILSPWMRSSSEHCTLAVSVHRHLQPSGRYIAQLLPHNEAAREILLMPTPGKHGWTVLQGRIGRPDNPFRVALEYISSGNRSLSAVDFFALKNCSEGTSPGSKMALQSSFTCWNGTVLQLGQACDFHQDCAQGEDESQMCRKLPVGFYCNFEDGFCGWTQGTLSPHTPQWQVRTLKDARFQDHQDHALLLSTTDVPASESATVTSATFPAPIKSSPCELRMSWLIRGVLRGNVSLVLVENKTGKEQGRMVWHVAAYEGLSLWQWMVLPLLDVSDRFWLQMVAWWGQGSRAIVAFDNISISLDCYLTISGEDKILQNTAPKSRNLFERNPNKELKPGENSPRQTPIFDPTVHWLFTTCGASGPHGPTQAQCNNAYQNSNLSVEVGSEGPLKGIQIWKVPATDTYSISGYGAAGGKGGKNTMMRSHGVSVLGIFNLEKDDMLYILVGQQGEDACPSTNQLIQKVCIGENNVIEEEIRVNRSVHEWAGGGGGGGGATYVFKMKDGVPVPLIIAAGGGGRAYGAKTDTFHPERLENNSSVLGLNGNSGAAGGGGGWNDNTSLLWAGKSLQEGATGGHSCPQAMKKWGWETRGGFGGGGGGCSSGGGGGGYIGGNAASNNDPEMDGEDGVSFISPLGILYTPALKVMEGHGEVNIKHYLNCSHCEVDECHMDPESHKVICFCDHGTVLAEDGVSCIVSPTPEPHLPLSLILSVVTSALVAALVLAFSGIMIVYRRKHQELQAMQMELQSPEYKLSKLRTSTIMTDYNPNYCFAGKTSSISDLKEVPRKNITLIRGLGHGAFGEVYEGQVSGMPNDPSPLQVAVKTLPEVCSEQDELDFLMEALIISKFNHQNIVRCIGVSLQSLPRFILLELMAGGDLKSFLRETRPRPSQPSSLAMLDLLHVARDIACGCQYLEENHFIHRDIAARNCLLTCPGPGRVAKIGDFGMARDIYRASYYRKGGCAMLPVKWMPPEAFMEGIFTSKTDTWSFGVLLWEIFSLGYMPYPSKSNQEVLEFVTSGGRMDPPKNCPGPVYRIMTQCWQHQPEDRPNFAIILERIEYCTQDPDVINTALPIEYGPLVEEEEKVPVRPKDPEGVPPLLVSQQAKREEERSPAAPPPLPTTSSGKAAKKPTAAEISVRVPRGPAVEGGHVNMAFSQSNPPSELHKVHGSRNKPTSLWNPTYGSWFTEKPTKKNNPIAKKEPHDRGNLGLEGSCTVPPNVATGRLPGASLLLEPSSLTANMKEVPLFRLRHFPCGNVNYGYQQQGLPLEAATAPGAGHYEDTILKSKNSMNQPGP
ALK tyrosine kinase receptor (Homo sapiens, UniProt Q9UM73, L1196M), sequence (Q9UM73 19-1620 L1196M limits assumed): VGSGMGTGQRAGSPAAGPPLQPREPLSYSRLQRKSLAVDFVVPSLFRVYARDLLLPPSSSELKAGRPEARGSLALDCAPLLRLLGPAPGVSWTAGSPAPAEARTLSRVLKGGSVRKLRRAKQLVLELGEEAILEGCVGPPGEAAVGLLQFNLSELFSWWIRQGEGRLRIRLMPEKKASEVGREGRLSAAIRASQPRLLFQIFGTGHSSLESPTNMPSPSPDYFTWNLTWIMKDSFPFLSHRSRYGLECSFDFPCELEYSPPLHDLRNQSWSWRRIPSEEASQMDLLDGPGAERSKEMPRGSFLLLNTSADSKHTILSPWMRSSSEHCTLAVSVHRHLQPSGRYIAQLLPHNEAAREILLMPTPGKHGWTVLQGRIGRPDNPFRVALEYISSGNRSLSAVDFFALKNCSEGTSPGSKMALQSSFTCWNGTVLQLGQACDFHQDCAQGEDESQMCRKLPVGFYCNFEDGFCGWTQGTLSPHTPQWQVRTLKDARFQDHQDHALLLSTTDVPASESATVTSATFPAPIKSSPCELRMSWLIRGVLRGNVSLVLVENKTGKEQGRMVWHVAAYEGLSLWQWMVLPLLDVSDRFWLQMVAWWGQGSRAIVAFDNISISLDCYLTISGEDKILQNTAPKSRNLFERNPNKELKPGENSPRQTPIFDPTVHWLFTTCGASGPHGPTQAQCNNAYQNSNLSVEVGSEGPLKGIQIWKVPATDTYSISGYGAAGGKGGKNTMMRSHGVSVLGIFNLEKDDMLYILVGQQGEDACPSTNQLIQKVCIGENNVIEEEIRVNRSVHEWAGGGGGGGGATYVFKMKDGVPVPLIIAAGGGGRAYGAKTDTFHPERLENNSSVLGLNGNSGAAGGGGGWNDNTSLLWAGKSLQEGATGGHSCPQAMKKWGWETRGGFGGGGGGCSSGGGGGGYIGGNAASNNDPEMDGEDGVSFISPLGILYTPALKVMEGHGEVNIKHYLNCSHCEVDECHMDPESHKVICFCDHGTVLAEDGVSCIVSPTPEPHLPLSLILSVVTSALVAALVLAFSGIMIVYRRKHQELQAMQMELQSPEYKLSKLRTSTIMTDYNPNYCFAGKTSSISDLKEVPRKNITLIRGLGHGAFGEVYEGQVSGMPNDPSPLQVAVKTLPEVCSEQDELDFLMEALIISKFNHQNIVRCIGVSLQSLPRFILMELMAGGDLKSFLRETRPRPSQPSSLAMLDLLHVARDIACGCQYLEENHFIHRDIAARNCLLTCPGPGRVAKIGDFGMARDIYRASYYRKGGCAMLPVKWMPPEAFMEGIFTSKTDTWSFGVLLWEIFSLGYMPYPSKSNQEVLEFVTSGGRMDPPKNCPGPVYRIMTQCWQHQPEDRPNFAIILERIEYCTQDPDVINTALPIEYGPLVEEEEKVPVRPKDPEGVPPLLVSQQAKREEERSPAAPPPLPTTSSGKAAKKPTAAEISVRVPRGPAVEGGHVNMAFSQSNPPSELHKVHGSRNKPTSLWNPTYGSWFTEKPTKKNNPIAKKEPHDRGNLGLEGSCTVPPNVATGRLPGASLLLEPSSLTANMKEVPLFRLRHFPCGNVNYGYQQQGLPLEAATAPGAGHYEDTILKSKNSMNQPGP
ALK tyrosine kinase receptor (Homo sapiens, UniProt Q9UM73, G1202R), sequence (Q9UM73 19-1620 G1202R limits assumed): as the sequence (Q9UM73 19-1620 L1196M limits assumed) above, with M1178L, G1184R counted along it

Row | Compound | IC50 [1] [nM] | IC50 [2] [nM] | IC50 [3] [nM] | IC50 (NCI-H2228 [4]) [nM] | IC50 (KARPAS-299) [nM] | IC50 (HCC78) [nM] | IC50 (A549 [5]) [nM] | IC50 [7] [nM] | IC50 [8] [nM] | IC50 [9] [nM] | IC50 (A549 [18]) [nM] | IC50 (HT-29) [nM] | further results
1 | COc1cc(NC(=O)N2CCOCC2)ccc1Nc1ncc(Cl)c(Nc2ccccc2NC(C)=O)n1 | > 1000 | 0.91 | 2.1 | 56 | 27 | 41 | 30 | 0.73 | > 1000 | 4.3 | 1610 | > 10000 | Ratio IC50 (A549 [6]): 16.5; Activity (NCI-H2228 [10]): Dose-dependent effect; Activity (NCI-H2228 [11]): Dose-dependent effect; Activity (NCI-H2228 [12]): Dose-dependent effect; Activity (NCI-H2228 [13]): Dose-dependent effect; Activity (NCI-H2228 [14]): Active; Activity (NCI-H2228 [15]): Active; Activity (NCI-H2228 [16]): Active; Activity (NCI-H2228 [17]): Active
2 | COc1cc(NC(=O)C2CC2)ccc1Nc1ncc(Cl)c(Nc2ccccc2NC(C)=O)n1 | > 1000 | 6.6 | 4.1 | 490 | 1060 | 230 | 930 | 3.2 | 617 | 11.5 | > 10000 | 2960 | –
3 | COc1cc(NC(=O)N2CCCC2)ccc1Nc1ncc(Cl)c(Nc2ccccc2NC(C)=O)n1 | > 1000 | 3.7 | 5.1 | 79 | 160 | 870 | 360 | 0.97 | > 1000 | 7.1 | > 10000 | 1270 | –
